Measured values as given in patent US6313179A, “Treatment of hyperproliferative skin disorders with C18 to C20 aliphatic alcohols” (Avanir Pharmaceuticals, priority 1998, dated 2001).

Experiments:
keloid scarring = test: Treatment of keloid scar formation with n-docosanol cream, case report (Example 4); assay type: in vivo, Human
Excerpt: The patient presented with a one year history of progressive bilateral facial keloid scarring. The precise cause of injury is unknown, but appears to have been initiated as a result of work-relatedexposure to some aerosolized irritant at a high rise building construction site. During the time of exposure, the patient was working in an area in which noxious fumes were known to exist, and they were wearing a filtration face mask for protection against inhalation exposure. Since the resulting wounds occurred in a pattern which appeared to outline the edges of the protective face mask, the injury may reflect some type of chemical burn resulting from concentration of aerosolized irritants with perspiration at the edge of the face mask.
During the ensuing year after onset of this process, the patient was seen on several occasions in the dermatology division of a major local hospital and attempts were made to arrest the process by intradermal steroid injections at the affected sites. This treatment approach was ineffective. When the patient was first seen by the inventors, they had extensive and disfiguring bilateral scars on the face and a large ulcerated lesion at the lower end of the process on the right side of the face. There was keloid scarring on both the right and left sides of the face manifested as typical "ropey and cord-like" tissue deposition and depigmentation. The right side of the face was noticeably swollen presumably as a result of the active ulceration process at the lower end of the lesions. The patient complained of pain along both areas of scarring, particularly at the more distal ends of the lesions. They admitted to social withdrawal as a result of embarrassment about their appearance and extreme frustration about the apparent futility of obtaining any help to arrest or reverse the process.
After thoroughly explaining the experimental aspects of the therapeutic regimen, the patient volunteered to enter a study in which cream containing either 15% or 10% n-docosanol as active ingredient was to be applied to the affected areas. These topical cream formulations are described in U.S. Pat. No. 5,534,554, the entire contents of which are incorporated by reference. Initially, applications of cream containing 15% n-docosanol were made three times daily. This cream formulation contained, in addition to 15% n-docosanol, […], 5.0% sucrose cocoate, 8.0% mineral oil NF, 5.0% propylene glycol USP, 2-ethyl-1,3-hexanediol and 58.3% purified water (all weight percent). After one month on this regimen, the patient was changed to cream containing 10% n-docosanol and the application frequency was reduced to two times daily, after showering in the morning and just before bed in the evening. This cream composition contained, in addition to 10% n-docosanol,5.0% sucrose stearates, 8.0% mineral oil NF, 5.0% propylene glycol USP, 2.7% benzyl alcohol NF and 69.3% purified water.

[1] = concentrations up to 300 mM; cited from earlier work
Human keloid fibroblasts = test: Proliferation study, keloid cells (Example 3); assay type: cell-based; conditions: 3 mM
Procedure: (§1) Human keloid fibroblasts, normal control skin fibroblasts and Vero cells were obtained from ATCC. n-Docosanol (30 mM) was suspended in Pluronic F-68 (1.2 mM) as described previously (Katz et al., ibid). A vehicle control was prepared using the same procedure except for the omission of n-docosanol. Radiolabeled n-[1-^14 C] docosanol suspension was prepared as described by Katz et al. (ibid.). Cells were resuspended in 1.2×10^6 cells/ml in DMEM supplemented with 10% fetal calf serum, sodium pyruvate, L-glutamine and penicillin-streptomycin. Cell suspension (0.5 ml) was added to each 35 mm well containing 1.3 ml media, followed by addition of 0.2 ml radiolabeled n-docosanol suspension (final n-docosanol concentration=3 mM). After 24 hours at 37° C. in humidified 10% CO2, the suspension was removed, wells were washed extensively with saline and cells were solubilized for scintillation counting by incubation with 0.5 ml trypsin for 15 min at 37° C. Solubilized cells were counted in a Beckman LS6000 scintillation counter. Samples were corrected for nonspecific binding to plates by subtracting values obtained in control wells lacking cells. To determine cell number, duplicate plates were treated with non-radiolabeled n-docosanol or control suspension at the same concentration or were left untreated. The number of viable cells was determined by trypan blue staining.

[2] = tested on: Vero (normal African green monkey kidney; ATCC CCL 81) cells; test: Proliferation study, Vero cells (Example 3); assay type: cell-based; conditions: 3 mM
Procedure: The following experiment examined the effect of n-docosanol on cell proliferation and quantitation of n-[1-^14 C]docosanol binding to keloid, Vero (normal African green monkey kidney; ATCC CCL 81) and normal skin fibroblast (ATCC CRL 1900) cells.
as §1

[3] = 15% cream three times daily, within 48 hours
[4] = 15% cream, by the end of the second week, patient perception

**Q.** With `CCCCCCCCCCCCCCCCCCCCCCO` [n-docosanol] as the compound, how does the “extent of elevation of the keloid scarring” value (keloid scarring; 15% cream one month, then 10% cream twice daily, three months) read?
**A.** clear reduction in the extent of elevation of the keloid scarring

**Q.** And the “pain around the lesions” value (keloid scarring; 15% cream three times daily, almost immediately after onset of therapy)?
**A.** significant diminution in pain

**Q.** And the “granulation within the ulcerated lesion” value (keloid scarring; [3])?
**A.** onset of granulation

**Q.** And the “swelling on the right side of the face” value (keloid scarring; [3])?
**A.** significant reduction in swelling

**Q.** What about the “suppleness of the overlying dermis” value (keloid scarring; [4]) of the same compound?
**A.** greater suppleness of the overlying dermis

**Q.** And the “tightness and thickness of the keloids” value (keloid scarring; [4])?
**A.** diminution in tightness and thickness of the keloids

**Q.** And the “pigmentation in the affected areas” value (keloid scarring; 15% then 10% cream, one year)?
**A.** almost complete return to normal pigmentation

**Q.** And the “ropey and cord-like elevations” value (keloid scarring; 15% then 10% cream, one year)?
**A.** a flattening of the previously ropey and cord-like elevations

**Q.** What about the scar tissue (keloid scarring; 15% then 10% cream, one year) of the same compound?
**A.** significant reduction of scar tissue

**Q.** What about the skin pigmentation (keloid scarring; 15% then 10% cream, three months) of the same compound?
**A.** considerable improvement in skin pigmentation

**Q.** What about the “scar defect at the site of the healed ulcerated lesion” value (keloid scarring; 15% then 10% cream, three months, compared to right temple line scar) of the same compound?
**A.** much smaller scar defect

**Q.** And the adverse reactions (keloid scarring; during the course of treatment)?
**A.** no adverse reactions

**Q.** What about the “keloid formation in a patient (in words)” value (keloid scarring; patient for whom other treatments had not been successful) of the same compound?
**A.** significantly reduced hyperproliferative keloid formation

**Q.** And the cytotoxicity [1]?
**A.** not cytotoxic in concentrations up to 300 mM

**Q.** And the inhibition at 3000 µM (Human keloid fibroblasts; Homo sapiens, Fibroblast, 24 h, one day incubation, read-out: reduction of number of keloid cells)?
**A.** 57%

**Q.** What about the activity at 3000 µM (Human keloid fibroblasts; Homo sapiens, Fibroblast, Table 4, Keloid, 24 hours, compared to cells incubated with no addition, read-out: % ctrl) of the same compound?
**A.** 43%

**Q.** What about the No. cells (Human keloid fibroblasts; Table 4, Keloid, 24 hours) of the same compound?
**A.** 1.6 × 10^5 cells

**Q.** What about the “number of Vero cells (in words)” value ([2]; one day incubation) of the same compound?
**A.** not decreased

**Q.** What about the activity at 3000 µM ([2]; Chlorocebus sabaeus, Table 4, Vero, 24 hours, compared to cells incubated with no addition, read-out: % ctrl) of the same compound?
**A.** 151%

**Q.** What about the “No. cells” value ([2]; Table 4, Vero, 24 hours) of the same compound?
**A.** 5.9 × 10^5 cells
